Key:
[1] = target: PARP-1 (poly[ADP-ribose] polymerase 1) enzyme (Homo sapiens (Human), UniProt P09874); assay: PARP-1 (poly[ADP-ribose] polymerase 1) enzyme inhibitory ability, Trevigen assay kit; format: biochemical; settings: for IC50: PARP-1 enzyme activity; for inhibition at 0.001 µM: 1 nM compound, read-out: PAR P-1 Inhibitory ability at 1 nM
Procedure, shortened: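 After the 1 hour PARP reaction, wells were washed with PBS containing 0.1% triton X-100 and then PBS. Strep-HRP (50 μL) was bound for 1 hour, wells washed again, and 50 μL of TACS-sapphire substrate developed 15 minutes in the dark. Reactions were stopped with 50 μL of 5% phosphoric acid and absorbance read at 450 nm on a Victor3 reader.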

[2] = system: rat model for dry macular degeneration (sodium iodate); assay: Retinal layer protection of rats in sodium iodate model for dry macular degeneration; format: in vivo; settings: 8-week-old rats, SI 50 mg/kg i.p., compound single intraperitoneal injection 15 mg/kg, H&E
Protocol: In order to evaluate the inhibitory effect (protective effect) of the compounds according to the present invention on reducing the thickness of the retinal layer of rats in dry macular degeneration-like cells, the following experiment was performed.
Specifically, 8-week-old rats were intraperitoneally injected with 50 mg/kg of sodium iodate (SI) to degenerate the retinal pigment epithelium and the photoreceptor cell layer to create a simulated animal model for dry macular degeneration. Retinal degeneration was observed 1 week after SI administration.
After a single intraperitoneal injection of Example 46 or Example 1 at a concentration of 15 mg/kg to the rat model for dry macular degeneration, the inhibitory effect (protective effect) on reducing the thickness of the retinal layer of the rats was evaluated.
In order to quantify the reduction of retinal thickness, the eyes extracted from the rats were fixed in a 4% glutaraldehyde solution for 3 hours and then embedded with paraffin. After preparing 5 μm-thick tissue fragments, the fragments were stained with a hematoxylin-eosin (H&E) solution and photographed with an optical microscope to measure the thickness of the retinal outer nuclear layer (ONL) of the retina. As a result, the thickness (μm) of the retinal ONL of the control group was calculated and expressed as 100% (n=3 times). […]

ARPE-19 cells = assay: Retinal pigment epithelial cell line protection, H2O2-induced apoptosis, MTS activity assay; format: cell-based, human; settings: 0.5 mM H2O2, 6 hours
Protocol: In order to evaluate the protective effect of the compounds according to the present invention on the retinal pigment epithelial cell line under the condition of inducing dry macular degeneration-like apoptosis, the following experiment was performed.
Specifically, ARPE-19 cells, which is a human retinal pigment epithelial cell line, were cultured in DMEM:F12 (Dulbecco's Modified Eagle's Medium: Ham's nutrient mixture F-12) containing 10% fetal bovine serum (FBS) and 1% penicillin/streptomycin. The cells were aliquoted in a well plate so that the number of cells per well was 1×10^4, and incubated in a 37° C. CO2 incubator for 12 hours. DMSO (0.1%) (control group) alone or various concentrations of the compounds of Examples 1 to 276 according to the present invention (experimental groups) were treated in a medium mixed with 0.5 mM H2O2 (control group), and then, the cells were further cultured in a 37° C. CO2 incubator for 6 hours to induce apoptosis.
The degree of apoptosis was measured by an MTS (3-(4,5-dimethylthiazol-2-yl)-5-(3-carboxymethoxyphenyl)-2-(4-sulfophenyl)-2H-tetrazolium) activity assay method manufactured by Promega, the cell MTS activity level in the normal medium condition was set to 100%, and the relative degree of cell protection was converted and determined based on the MTS activity level of the control group in the 0.5 mM H2O2 treatment condition.
The MTS activity assay evaluation method is a method of measuring the activity of NADH dehydrogenase in mitochondria in cells, and MTS is reduced by NADH dehydrogenase to form colored formazan. Through this method, live cells can be quantified, and cell proliferation and apoptosis can be quantified. After the above-mentioned damage stimulus was treated to the retinal pigment epithelial cell line, 15 μL of MTS activity assay kit manufactured by Promega was added to each well, and then reacted in a 37° C. CO2 incubator for 2 hours. The reacted wells were quantified by measuring the absorbance at 450 nm using a microplate reader Victor 3 manufactured by PerkinElmer, Inc., and the results are shown in Table 4 below.

PARP-1 (poly[ADP-ribose] polymerase 1) enzyme, sequence (P09874 whole entry): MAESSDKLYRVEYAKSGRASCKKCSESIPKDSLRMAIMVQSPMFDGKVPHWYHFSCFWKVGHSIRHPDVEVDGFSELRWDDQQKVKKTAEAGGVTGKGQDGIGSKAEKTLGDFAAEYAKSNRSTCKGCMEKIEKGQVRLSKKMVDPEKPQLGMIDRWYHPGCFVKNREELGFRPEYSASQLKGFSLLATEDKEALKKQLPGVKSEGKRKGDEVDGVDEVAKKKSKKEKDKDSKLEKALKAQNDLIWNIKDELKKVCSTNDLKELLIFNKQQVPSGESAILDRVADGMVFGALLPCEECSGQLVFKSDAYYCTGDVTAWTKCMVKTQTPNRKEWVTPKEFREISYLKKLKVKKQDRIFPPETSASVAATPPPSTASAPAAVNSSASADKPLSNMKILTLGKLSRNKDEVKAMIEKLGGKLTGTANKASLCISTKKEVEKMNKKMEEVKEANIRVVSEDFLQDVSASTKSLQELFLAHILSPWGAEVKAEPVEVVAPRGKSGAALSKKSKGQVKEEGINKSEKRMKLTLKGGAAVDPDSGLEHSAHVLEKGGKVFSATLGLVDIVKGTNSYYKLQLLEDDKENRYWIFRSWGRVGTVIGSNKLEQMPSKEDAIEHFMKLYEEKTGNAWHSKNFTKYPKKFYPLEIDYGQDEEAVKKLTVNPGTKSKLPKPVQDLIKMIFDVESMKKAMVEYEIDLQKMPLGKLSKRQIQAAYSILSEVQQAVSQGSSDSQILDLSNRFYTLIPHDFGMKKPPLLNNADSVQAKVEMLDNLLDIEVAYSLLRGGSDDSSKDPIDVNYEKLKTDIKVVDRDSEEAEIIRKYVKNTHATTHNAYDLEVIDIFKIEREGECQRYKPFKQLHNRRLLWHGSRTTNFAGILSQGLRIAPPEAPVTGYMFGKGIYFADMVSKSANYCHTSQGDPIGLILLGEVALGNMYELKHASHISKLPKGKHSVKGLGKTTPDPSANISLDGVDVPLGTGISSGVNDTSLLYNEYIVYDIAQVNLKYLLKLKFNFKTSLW

Row | SMILES | inhibition at 0.001 µM [1] [%] | also measured
1 | N#Cc1ccc(N2CCN(CCCc3cc4cccc(F)c4c(=O)[nH]3)CC2)cc1 [Example 1, 4-(4-(3-(8-fluoro-1-oxo-1,2-dihydroisoquinolin-3-yl)propyl)piperazin-1-yl)benzonitrile] | – | IC50 [1]: 2.3 nM; protection of retinal outer nuclear layer (ONL) thickness [2]: the retina was protected
2 | N#Cc1ccc(C2=CCN(C(=O)CCc3cc4cccc(F)c4c(=O)[nH]3)CC2)nc1 [Example 88, 1′-(3-(8-fluoro-1-oxo-1,2-dihydroisoquinolin-3-yl)propanoyl)-1′,2′,3′,6′-tetrahydro-[2,4′-bipyridine]-5-carbonitrile] | < 50 | EC50 (ARPE-19 cells; Homo sapiens, ARPE-19, 6 h): 629 nM
3 | Cc1cc(F)cc2c(=O)[nH]c(CCC(=O)N3CC=C(c4ccc(C#N)cn4)CC3)cc12 [Example 165, 1′-(3-(7-fluoro-5-methyl-1-oxo-1,2-dihydroisoquinolin-3-yl)propanoyl)-1′,2′,3′,6′-tetrahydro-[2,4′-bipyridine]-5-carbonitrile] | < 50 | EC50 (ARPE-19 cells): 108 nM; EC50 (ARPE-19 cells; Homo sapiens, ARPE-19, 6 h): < 150 nM
4 | N#Cc1ccc(C2=CCN(CCCc3cc4cccc(F)c4c(=O)[nH]3)CC2)nc1 [Example 46, 1′-(3-(8-fluoro-1-oxo-1,2-dihydroisoquinolin-3-yl)propyl)-1′,2′,3′,6′-tetrahydro-[2,4′-bipyridine]-5-carbonitrile] | 50 to 80 | IC50 [1]: 1.66 nM; protection of retinal outer nuclear layer (ONL) thickness [2]: the retina was protected
5 | O=c1[nH]c(CCCN2C3CCC2CN(c2ccc(Cl)cc2)C3)cc2ncccc12 [Example 228, 7-(3-(3-(4-chlorophenyl)-3,8-diazabicyclo[3.2.1]octan-8-yl)propyl)-1,6-naphthyridin-5(6H)-one] | 50 to 80 | EC50 (ARPE-19 cells): 144 nM; EC50 (ARPE-19 cells; Homo sapiens, ARPE-19, 6 h): < 150 nM
6 | Cc1ccc(F)c2c(=O)[nH]c(CCC(=O)N3C4CCC3CN(c3ccc(C#N)cn3)C4)cc12 [Example 207, 6-(8-(3-(8-fluoro-5-methyl-1-oxo-1,2-dihydroisoquinolin-3-yl)propanoyl)-3,8-diazabicyclo[3.2.1]octan-3-yl)nicotinonitrile] | < 50 | –
7 | N#Cc1ccc(NC2CCN(CCCc3cc4cccc(F)c4c(=O)[nH]3)CC2)cn1 [Example 248, 5-((1-(3-(8-fluoro-1-oxo-1,2-dihydroisoquinolin-3-yl)propyl)piperidin-4-yl)amino)picolinonitrile] | < 50 | –
8 | Cc1cc(F)cc2c(=O)[nH]c(CCC(=O)N3CCN(c4cccc(F)c4)CC3)cc12 [Example 167, 7-fluoro-3-(3-(4-(3-fluorophenyl)piperazin-1-yl)-3-oxopropyl)-5-methylisoquinolin-1(2H)-one] | < 50 | –
9 | N#Cc1cc(F)ccc1C1=CCN(C(=O)CCc2cc3ccc(F)cc3c(=O)[nH]2)CC1 [Example 112, 5-fluoro-2-(1-(3-(7-fluoro-1-oxo-1,2-dihydroisoquinolin-3-yl)propanoyl)-1,2,3,6-tetrahydropyridin-4-yl)benzonitrile] | < 50 | –
10 | Cc1cc(F)cc2c(=O)[nH]c(CCCN3CC=C(c4ccc(F)cc4)CC3)cc12 [Example 59, 7-fluoro-3-(3-(4-(4-fluorophenyl)-3,6-dihydropyridin-1(2H)-yl)propyl)-5-methylisoquinolin-1(2H)-one] | < 50 | –
11 | N#Cc1ccc(N2CC3CCC(C2)N3CCCc2cc3ncccc3c(=O)[nH]2)nc1 [Example 232, 6-(8-(3-(5-oxo-5,6-dihydro-1,6-naphthyridin-7-yl)propyl)-3,8-diazabicyclo[3.2.1]octan-3-yl)nicotinonitrile] | < 50 | –
12 | Cc1cc(F)cc2c(=O)[nH]c(CCC(=O)N3CC=C(c4ccc(F)cc4)CC3)cc12 [Example 150, 7-fluoro-3-(3-(4-(4-fluorophenyl)-3,6-dihydropyridin-1(2H)-yl)-3-oxopropyl)-5-methylisoquinolin-1(2H)-one] | < 50 | –
13 | O=c1[nH]c(CCCN2C3CCC2CC(O)C3)cc2ncccc12 (stereo not shown) [Example 271, 7-(3-(3-hydroxy-8-azabicyclo[3.2.1]octan-8-yl)propyl)-1,6-naphthyridin-5(6H)-one] | < 50 | –
14 | Cc1cc(F)cc2c(=O)[nH]c(CCC(=O)N3CCN(c4ccc(C#N)cc4)CC3)cc12 [Example 149, 4-(4-(3-(7-fluoro-5-methyl-1-oxo-1,2-dihydroisoquinolin-3-yl)propanoyl)piperazin-1-yl)benzonitrile] | < 50 | –
15 | Cc1ccc(F)c2c(=O)[nH]c(CCC(=O)N3CC=C(c4ccc(C#N)cn4)CC3)cc12 [Example 140, 1′-(3-(8-fluoro-5-methyl-1-oxo-1,2-dihydroisoquinolin-3-yl)propanoyl)-1′,2′,3′,6′-tetrahydro-[2,4′-bipyridine]-5-carbonitrile] | < 50 | –
16 | Cc1cc(F)cc2c(=O)[nH]c(CCCN3CC=C(c4ccc(F)nc4)CC3)cc12 [Example 63, 7-fluoro-3-(3-(6-fluoro-3′,6′-dihydro-[3,4′-bipyridine]-1′(2′H)-yl)propyl)-5-methylisoquinolin-1(2H)-one] | < 50 | –
17 | N#Cc1ccc(N2CCN(C(=O)CCc3cc4cccc(F)c4c(=O)[nH]3)CC2)c(F)c1 [Example 73, 3-fluoro-4-(4-(3-(8-fluoro-1-oxo-1,2-dihydroisoquinolin-3-yl)propanoyl)piperazin-1-yl)benzonitrile] | < 50 | –
18 | Cc1ccc(F)c2c(=O)[nH]c(CCC(=O)N3C4CCC3CN(c3ccc(Cl)cc3)C4)cc12 [Example 210, 3-(3-(3-(4-chlorophenyl)-3,8-diazabicyclo[3.2.1]octan-8-yl)-3-oxopropyl)-8-fluoro-5-methylisoquinolin-1(2H)-one] | < 50 | –
19 | Cc1ccc(F)c2c(=O)[nH]c(CCC(=O)N3CCN(c4cc(C#N)ccc4F)CC3)cc12 [Example 133, 4-fluoro-3-(4-(3-(8-fluoro-5-methyl-1-oxo-1,2-dihydroisoquinolin-3-yl)propanoyl)piperazin-1-yl)benzonitrile] | < 50 | –
20 | O=C(CCc1cc2ncccc2c(=O)[nH]1)N1CC=C(c2ccc(F)cc2)CC1 [Example 244, 7-(3-(4-(4-fluorophenyl)-3,6-dihydropyridin-1(2H)-yl)-3-oxopropyl)-1,6-naphthyridin-5(6H)-one] | < 50 | –
